# Test results: ChEMBL document CHEMBL1152790, “Synthesis and pharmacological characterization of beta2-adrenergic agonist enantiomers: zilpaterol” (J Med Chem, 2009)
# Where a name gives a salt, the structure may show the parent alone. Active and inactive are the calls of the source. No cut-off for these calls is given here.
# Columns and labels:
# Mu-type opioid receptor [1] = molecular target: T1, Mu-type opioid receptor (Homo sapiens, UniProt P35372); test: Agonist activity at human recombinant mu opioid receptor expressed in AequoScreen cells assessed as aequorin-derived receptor-mediated changes in intracellular calcium levels; format: functional, cell-based
# Mu-type opioid receptor [2] = molecular target: T1, Mu-type opioid receptor; test: Antagonist activity at human recombinant mu opioid receptor expressed in AequoScreen cells assessed as aequorin-derived receptor-mediated changes in intracellular calcium levels; format: functional, cell-based
# [3] = molecular target: Beta-2 adrenergic receptor (Cavia porcellus, UniProt Q8K4Z4)
# Description: Agonist activity at adrenergic beta2 receptor in guinea pig trachea assessed as relaxation of carbachol-induced tissue contraction
# Mu-type opioid receptor [4] = molecular target: T1, Mu-type opioid receptor; test: Displacement of [3H]DAMGO from human recombinant mu opioid receptor expressed in HEK293 cells by scintillation counting; format: cell-based
# T1 sequence (P35372 whole entry): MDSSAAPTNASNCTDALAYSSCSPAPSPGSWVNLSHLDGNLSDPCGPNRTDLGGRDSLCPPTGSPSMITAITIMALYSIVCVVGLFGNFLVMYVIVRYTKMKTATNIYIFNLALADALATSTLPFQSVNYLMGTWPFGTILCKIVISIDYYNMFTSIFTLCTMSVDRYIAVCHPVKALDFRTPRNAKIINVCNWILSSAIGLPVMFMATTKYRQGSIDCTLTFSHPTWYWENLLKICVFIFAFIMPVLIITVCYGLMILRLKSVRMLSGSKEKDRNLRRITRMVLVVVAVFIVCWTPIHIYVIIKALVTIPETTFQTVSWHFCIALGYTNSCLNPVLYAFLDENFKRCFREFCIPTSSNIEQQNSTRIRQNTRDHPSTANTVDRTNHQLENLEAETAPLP
# Beta-2 adrenergic receptor, sequence (Q8K4Z4 whole entry): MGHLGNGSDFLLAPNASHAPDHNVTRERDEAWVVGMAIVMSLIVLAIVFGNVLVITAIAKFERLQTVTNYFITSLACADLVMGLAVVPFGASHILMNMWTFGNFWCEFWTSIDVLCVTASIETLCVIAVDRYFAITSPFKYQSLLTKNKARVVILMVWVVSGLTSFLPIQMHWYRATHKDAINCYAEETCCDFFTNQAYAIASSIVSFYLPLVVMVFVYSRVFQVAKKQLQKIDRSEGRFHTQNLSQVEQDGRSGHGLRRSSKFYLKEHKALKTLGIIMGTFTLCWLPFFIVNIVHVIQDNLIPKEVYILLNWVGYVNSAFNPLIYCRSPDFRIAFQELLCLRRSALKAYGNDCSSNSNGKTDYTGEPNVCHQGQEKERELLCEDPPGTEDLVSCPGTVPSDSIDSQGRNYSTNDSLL
SMILES,Activity (Mu-type opioid receptor [1]),Emax (Mu-type opioid receptor [2]) [%],IC50 (Mu-type opioid receptor [2]) [µM],also measured
CC(C)N[C@@H]1CCn2c(=O)[nH]c3cccc(c32)[C@H]1O (racemic),inactive,93,,
CC(C)(C)NCC(O)c1cc(Cl)c(N)c(Cl)c1 (racemic) [CLENBUTEROL],,,,EC50 [3]: 0.013 µM
CC(C)N[C@H]1CCn2c(=O)[nH]c3cccc(c32)[C@@H]1O,inactive,96,140,
CC(C)N[C@@H]1CCn2c(=O)[nH]c3cccc(c32)[C@H]1O,inactive,,,
CC(C)N[C@@H]1CCn2c(=O)[nH]c3cccc(c32)[C@H]1O (racemic) [ZILPATEROL HYDROCHLORIDE],,,300,IC50 (Mu-type opioid receptor [4]): 31 µM; Ki (Mu-type opioid receptor [4]): 13 µM
CC(C)N[C@@H]1CCn2c(=O)[nH]c3cccc(c32)[C@H]1O [ZILPATEROL HYDROCHLORIDE],,,> 1000,
